In patent US8129366B2, “VLA-4 inhibitory drug” (Daiichi Sankyo Company, Limited, priority 2005, dated 2012) one finds solubility, Ki and IC50 data, which are given here for 16 compounds.

Data set [1] is described as follows: Solubility test in first and second liquid of the Japanese Pharmacopoeia. The conditions noted are these: Solubility.
Protocol: The solubilities of the substance under test in the first liquid (JP1, pH=1.2) of the Japanese Pharmacopoeia and the second liquid (JP2, pH=6.8) of the Japanese Pharmacopoeia, were evaluated.
For the next data set, the target named is T1, hα4 and β1 integrins (Homo sapiens, UniProt P05556+P13612).
T1 construct: expressed in transfected cells; host or cells: CHO cells
Nature of the data set: In vitro inhibition of binding between CHO cells expressing hα4 and β1 integrins and Eu3+-hVCAM-1 D1D7-IgG. The conditions noted are these: for Ki: CHO cells expressing hα4 and β1 integrins, Eu3+-hVCAM-1 D1D7-IgG ligand, without HSA; for IC50: in the presence of 3% human serum albumin (HSA final concentration 3%). In short, it runs like this:
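Transfected CHO cells, cultured 2 days, were incubated with compound and Eu³⁺-hVCAM-1 D1D7-IgG (diluted to 2 nM) for 1 h at room temperature. Buffer was 25 mM HEPES pH 7.5 with 1 mM Ca²⁺, 1 mM Mg²⁺, 4 mM Mn²⁺ and 0.1% BSA, ±3% HSA final. Cells were washed at 4 °C and read by DELFIA time-resolved fluorescence; Ki was derived from IC50 using the Scatchard Kd.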

The mark [2] stands for this setting: first liquid of the Japanese Pharmacopoeia (JP1), pH 1.2, simulated gastric fluid, First liquid of Japanese Pharmacopoeia (μg/mL), JP1, pH=1.2.
[3] abbreviates: second liquid of the Japanese Pharmacopoeia (JP2), pH 6.8, aqueous buffer, Second liquid of Japanese Pharmacopoeia (μg/mL), JP2, pH=6.8.

In brackets after ≈: the same amount, converted by molar mass.

T1 sequence (P13612 34-1032): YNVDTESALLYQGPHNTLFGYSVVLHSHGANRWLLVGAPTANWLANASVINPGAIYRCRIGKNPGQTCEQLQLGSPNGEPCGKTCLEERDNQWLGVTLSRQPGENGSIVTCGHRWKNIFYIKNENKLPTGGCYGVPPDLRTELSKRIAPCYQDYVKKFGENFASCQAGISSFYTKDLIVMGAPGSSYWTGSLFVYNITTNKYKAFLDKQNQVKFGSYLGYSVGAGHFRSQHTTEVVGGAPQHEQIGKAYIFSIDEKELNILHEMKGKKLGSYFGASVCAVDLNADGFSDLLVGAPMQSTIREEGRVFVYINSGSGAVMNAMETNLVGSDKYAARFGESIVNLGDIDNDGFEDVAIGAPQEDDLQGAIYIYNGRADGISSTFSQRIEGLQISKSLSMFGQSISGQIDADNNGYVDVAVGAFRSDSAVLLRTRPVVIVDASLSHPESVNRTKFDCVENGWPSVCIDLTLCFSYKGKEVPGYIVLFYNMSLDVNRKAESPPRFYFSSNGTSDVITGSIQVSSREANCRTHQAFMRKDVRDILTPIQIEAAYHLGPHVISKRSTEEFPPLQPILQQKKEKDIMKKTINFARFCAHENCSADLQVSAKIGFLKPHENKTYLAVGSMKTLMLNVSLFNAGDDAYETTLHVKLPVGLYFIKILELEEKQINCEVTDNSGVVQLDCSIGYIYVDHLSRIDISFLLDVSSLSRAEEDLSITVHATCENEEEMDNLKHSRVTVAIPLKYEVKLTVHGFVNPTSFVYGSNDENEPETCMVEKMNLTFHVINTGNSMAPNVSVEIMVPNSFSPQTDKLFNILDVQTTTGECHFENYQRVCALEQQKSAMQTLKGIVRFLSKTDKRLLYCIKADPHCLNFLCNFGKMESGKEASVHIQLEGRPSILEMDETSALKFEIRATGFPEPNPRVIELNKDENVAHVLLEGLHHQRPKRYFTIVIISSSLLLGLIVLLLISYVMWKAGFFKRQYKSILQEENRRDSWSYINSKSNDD
T1 sequence (P05556 21-798): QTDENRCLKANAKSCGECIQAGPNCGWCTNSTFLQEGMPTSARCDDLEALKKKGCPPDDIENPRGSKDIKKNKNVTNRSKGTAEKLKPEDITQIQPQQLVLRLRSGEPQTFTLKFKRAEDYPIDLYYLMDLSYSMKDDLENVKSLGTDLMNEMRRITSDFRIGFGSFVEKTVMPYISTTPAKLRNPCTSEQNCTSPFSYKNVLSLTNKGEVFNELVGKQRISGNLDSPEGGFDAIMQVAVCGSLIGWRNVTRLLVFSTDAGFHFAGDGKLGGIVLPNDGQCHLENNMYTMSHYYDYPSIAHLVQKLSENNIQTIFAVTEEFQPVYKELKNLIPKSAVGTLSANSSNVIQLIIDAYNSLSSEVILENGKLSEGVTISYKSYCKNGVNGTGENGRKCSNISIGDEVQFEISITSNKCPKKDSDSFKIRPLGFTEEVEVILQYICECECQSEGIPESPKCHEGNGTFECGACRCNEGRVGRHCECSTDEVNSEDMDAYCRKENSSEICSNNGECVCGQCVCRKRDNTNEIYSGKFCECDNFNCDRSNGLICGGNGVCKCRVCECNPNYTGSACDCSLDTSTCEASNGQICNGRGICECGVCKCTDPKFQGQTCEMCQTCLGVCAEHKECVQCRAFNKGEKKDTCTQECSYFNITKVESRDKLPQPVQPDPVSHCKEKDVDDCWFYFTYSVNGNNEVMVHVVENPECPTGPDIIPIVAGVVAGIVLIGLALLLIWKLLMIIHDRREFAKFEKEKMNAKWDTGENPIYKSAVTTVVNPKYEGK

Turning to `CC(=O)N[C@H]1CCN([C@H]2C[C@@H](CO[C@H]3CC[C@H](C(=O)O)CC3)N(C(=O)Cc3cc(Cl)c(NC(=O)c4csc5ccccc45)cc3F)C2)C1` [Example 66, Trans-4-[1-[[4-[(benzo[b]thiophen-3-ylcarbonyl)amino]-5-chloro-2-fluorophenyl]acetyl]-(4S)-[(3S)-acetamidopyrrolidin-1-yl]-(2S)-pyrrolidinylmethoxy]cyclohexanecarboxylic acid], the solubility in data set [1] (setting [2]) and in data set [1] (setting [3]) was above 2000 µg/mL throughout. Further, on hα4 and β1 integrins, the Ki (in general, the dissociation constant of the complex between target and ligand, obtained from inhibition or displacement) was found to be 0.42 nM. Further, the IC50 – broadly, the midpoint of a concentration-inhibition curve – at hα4 and β1 integrins stood at 14 nM.

Regarding `C[C@@H]1CN([C@H]2C[C@@H](CO[C@H]3CC[C@H](C(=O)O)CC3)N(C(=O)Cc3ccc(NC(=O)c4nn(C)c5ccccc45)c(Cl)c3)C2)C[C@H](C)O1` [Example 88, Trans-4-[1-[[3-chloro-4-[(1-methyl-1H-indazol-3-ylcarbonyl)amino]phenyl]acetyl]-(4S)-(cis-2,6-dimethylmorpholin-4-yl)-(2S)-pyrrolidinylmethoxy]cyclohexanecarboxylic acid], in data set [1] (setting [2]), the concentration in solution (solubility) was 1100 µg/mL (≈ 1650 µM). The solubility (commonly the concentration that dissolves in the medium under given conditions) in data set [1] (setting [3]) was found to be 1300 µg/mL (≈ 1950 µM). Besides, at hα4 and β1 integrins, the Ki was 1.5 nM and the IC50 amounted to 9 nM.

Take `O=C(Nc1cc(Cl)c(CC(=O)N2C[C@@H](N3C[C@@H]4OCO[C@@H]4C3)C[C@H]2CO[C@H]2CC[C@H](C(=O)O)CC2)cc1Cl)c1coc2ccccc12` [Example 73, Trans-4-[1-[[4-[(benzo[b]furan-3-ylcarbonyl)amino]-2,5-dichlorophenyl]acetyl]-(4S)-[(3a,6a-cis)-tetrahydro[1,3]dioxolo[4,5-c]pyrrol-5-yl]-(2S)-pyrrolidinylmethoxy]cyclohexanecarboxylic acid]: the solubility in data set [1] (setting [2]) and in data set [1] (setting [3]) was 1000 µg/mL (≈ 1460 µM) in each case. This compound also displayed a Ki on hα4 and β1 integrins of 1.9 nM. Also, the IC50 on hα4 and β1 integrins is 22 nM.

`CCOC1CN([C@H]2C[C@@H](CO[C@H]3CC[C@H](C(=O)O)CC3)N(C(=O)Cc3cc(Cl)c(NC(=O)c4cn(C)c5ccccc45)cc3Cl)C2)C1` [Example 20, Trans-4-[1-[[2,5-dichloro-4-[(1-methyl-1H-indol-3-ylcarbonyl)amino]phenyl]acetyl]-(4S)-(3-ethoxyazetidin-1-yl)-(2S)-pyrrolidinylmethoxy]cyclohexanecarboxylic acid]: the solubility in data set [1] (setting [2]) was above 2000 µg/mL; in data set [1] (setting [3]), 1920 µg/mL (≈ 2800 µM). Also, the Ki on hα4 and β1 integrins was 3.9 nM. Also, the IC50 on hα4 and β1 integrins came out at 40 nM.

With `COCC1CCN([C@H]2C[C@@H](CO[C@H]3CC[C@H](C(=O)O)CC3)N(C(=O)Cc3cc(Cl)c(NC(=O)c4csc5ccccc45)cc3F)C2)CC1` [Example 99, Trans-4-[1-[[4-[(benzo[b]thiophen-3-ylcarbonyl)amino]-5-chloro-2-fluorophenyl]acetyl]-(4S)-[(4-methoxymethyl)piperidin-1-yl]-(2S)-pyrrolidinylmethoxy]cyclohexanecarboxylic acid], the solubility in data set [1] (setting [2]) was above 2000 µg/mL; in data set [1] (setting [3]) it was 1020 µg/mL (≈ 1450 µM). The compound further gave a Ki at hα4 and β1 integrins of 0.34 nM. The IC50 at hα4 and β1 integrins came to 3.8 nM.

Consider `CO[C@@H]1CCN([C@H]2C[C@@H](CO[C@H]3CC[C@H](C(=O)O)CC3)N(C(=O)Cc3cc(Cl)c(NC(=O)c4csc5ccccc45)cc3F)C2)C1` [Example 32, Trans-4-[1-[[4-[(benzo[b]thiophen-3-ylcarbonyl)amino]-5-chloro-2-fluorophenyl]acetyl]-(4S)-[(3R)-methoxypyrrolidin-1-yl]-(2S)-pyrrolidinylmethoxy]cyclohexanecarboxylic acid], for which the concentration in solution in data set [1] (setting [2]) (solubility) came to 1700 µg/mL (≈ 2530 µM). This compound yielded a solubility in data set [1] (setting [3]) of 1690 µg/mL (≈ 2510 µM). Moreover, at hα4 and β1 integrins, the affinity corresponds to a Ki of 0.74 nM and the IC50 was 3.5 nM.

Take `COC[C@@H]1C[C@H](OC)CN1[C@H]1C[C@@H](CO[C@H]2CC[C@H](C(=O)O)CC2)N(C(=O)Cc2cc(Cl)c(NC(=O)c3cn(C)c4ccccc34)cc2Cl)C1` [Example 46, Trans-4-[1-[[2,5-dichloro-4-[(1-methyl-1H-indol-3-ylcarbonyl)amino]phenyl]acetyl]-(4S)-[(2S)-methoxymethyl-(4S)-methoxypyrrolidin-1-yl]-(2S)-pyrrolidinylmethoxy]cyclohexanecarboxylic acid]: the solubility in data set [1] (setting [2]) and in data set [1] (setting [3]) was 1200 µg/mL (≈ 1640 µM) throughout. The compound further displayed a Ki on hα4 and β1 integrins of 7.3 nM. In addition, at hα4 and β1 integrins, the IC50 is 15 nM.

Consider `CCO[C@H]1CN([C@H]2C[C@@H](CO[C@H]3CC[C@H](C(=O)O)CC3)N(C(=O)Cc3cc(Cl)c(NC(=O)c4cn(C)c5ccccc45)cc3Cl)C2)C[C@H]1OCC` [Example 63, Trans-4-[1-[[2,5-dichloro-4-[(1-methyl-1H-indol-3-ylcarbonyl)amino]phenyl]acetyl]-(4S)-(3,4-cis-diethoxypyrrolidin-1-yl)-(2S)-pyrrolidinylmethoxy]cyclohexanecarboxylic acid], for which the solubility in data set [1] (setting [2]) was 1000 µg/mL (≈ 1340 µM). In data set [1] (setting [3]), this compound came in with a solubility of 1000 µg/mL (≈ 1340 µM). On hα4 and β1 integrins, the affinity corresponds to a Ki of 4.7 nM and the IC50 turned out to be 23 nM.

As for `CO[C@H]1CN([C@H]2C[C@@H](CO[C@H]3CC[C@H](C(=O)O)CC3)N(C(=O)Cc3cc(Cl)c(NC(=O)c4coc5ccccc45)cc3F)C2)C[C@@H]1OC` [Example 53, Trans-4-[1-[[4-[(benzo[b]furan-3-ylcarbonyl)amino]-5-chloro-2-fluorophenyl]acetyl]-(4S)-[(3S,4S)-dimethoxypyrrolidin-1-yl]-(2S)-pyrrolidinylmethoxy]cyclohexanecarboxylic acid], the solubility in data set [1] (setting [2]) and in data set [1] (setting [3]) was 1000 µg/mL (≈ 1460 µM) throughout. At hα4 and β1 integrins, this compound returned an inhibition constant (Ki) of 2 nM. In addition, the IC50 on hα4 and β1 integrins was determined as 11 nM.

The compound `COC1CCN([C@H]2C[C@@H](CO[C@H]3CC[C@H](C(=O)O)CC3)N(C(=O)Cc3cc(Cl)c(NC(=O)c4csc5ccccc45)cc3F)C2)CC1` [Example 103, Trans-4-[1-[[4-[(benzo[b]thiophen-3-ylcarbonyl)amino]-5-chloro-2-fluorophenyl]acetyl]-(4S)-(4-methoxypiperidin-1-yl)-(2S)-pyrrolidinylmethoxy]cyclohexanecarboxylic acid] showed a solubility in data set [1] (setting [2]) above 2000 µg/mL. Further, the concentration in solution in data set [1] (setting [3]) (solubility) came to 1360 µg/mL (≈ 1990 µM). At hα4 and β1 integrins, the affinity, expressed as Ki, was 0.32 nM and the IC50 turned out to be 2.2 nM.

`C[C@@H]1CN([C@H]2C[C@@H](CO[C@H]3CC[C@H](C(=O)O)CC3)N(C(=O)Cc3cc(Cl)c(NC(=O)c4cn(C)c5ccccc45)cc3F)C2)C[C@H](C)N1CCF` [Example 147, Trans-4-[1-[[5-chloro-2-fluoro-4-[(1-methyl-1H-indol-3-ylcarbonyl)amino]phenyl]acetyl]-(4S)-[cis-2,6-dimethyl-1-(2-fluoroethyl)piperazin-4-yl]-(2S)-pyrrolidinylmethoxy]cyclohexanecarboxylic acid]: the solubility in data set [1] (setting [2]) and in data set [1] (setting [3]) was 1400 µg/mL (≈ 1920 µM) each time. In addition, on hα4 and β1 integrins, affinity was put at a Ki of 3.2 nM. The IC50 on hα4 and β1 integrins was 12 nM.

The compound `CO[C@H]1CCN([C@H]2C[C@@H](CO[C@H]3CC[C@H](C(=O)O)CC3)N(C(=O)Cc3cc(Cl)c(NC(=O)c4cn(C)c5ccccc45)cc3Cl)C2)C1` [Example 35, Trans-4-[1-[[2,5-dichloro-4-[(1-methyl-1H-indol-3-ylcarbonyl)amino]phenyl]acetyl]-(4S)-[(3S)-methoxypyrrolidin-1-yl]-(2S)-pyrrolidinylmethoxy]cyclohexanecarboxylic acid] gave a solubility in data set [1] (setting [2]) above 2000 µg/mL. Also, in data set [1] (setting [3]), the solubility is above 2000 µg/mL. Moreover, at hα4 and β1 integrins, the Ki was 5.9 nM and the IC50 is 20 nM.

In data set [1] (setting [2]), `CC(C)N1CCN([C@H]2C[C@@H](CO[C@H]3CC[C@H](C(=O)O)CC3)N(C(=O)Cc3cc(Cl)c(NC(=O)c4cn(C)c5ccccc45)cc3Cl)C2)CC1` [Example 113, Trans-4-[1-[[2,5-dichloro-4-[(1-methyl-1H-indol-3-ylcarbonyl)amino]phenyl]acetyl]-(4S)-(4-isopropylpiperazin-1-yl)-(2S)-pyrrolidinylmethoxy]cyclohexanecarboxylic acid] displayed a solubility of 1000 µg/mL (≈ 1400 µM). Besides, in data set [1] (setting [3]), the solubility was determined as 1000 µg/mL (≈ 1400 µM). Further, on hα4 and β1 integrins, the Ki was determined as 2.8 nM and the IC50 was 9.5 nM.

Take `CO[C@H]1CN([C@H]2C[C@@H](CO[C@H]3CC[C@H](C(=O)O)CC3)N(C(=O)Cc3cc(Cl)c(NC(=O)c4coc5ccccc45)cc3Cl)C2)C[C@H]1OC` [Example 60, Trans-4-[1-[[4-[(benzo[b]furan-3-ylcarbonyl)amino]-2,5-dichlorophenyl]acetyl]-(4S)-(cis-3,4-dimethoxypyrrolidin-1-yl)-(2S)-pyrrolidinylmethoxy]cyclohexanecarboxylic acid]: the solubility in data set [1] (setting [2]) and in data set [1] (setting [3]) was 1000 µg/mL (≈ 1420 µM) throughout. Moreover, the Ki at hα4 and β1 integrins was determined as 7.9 nM. In addition, the IC50 on hα4 and β1 integrins is 18 nM.

`COC1CN([C@H]2C[C@@H](CO[C@H]3CC[C@H](C(=O)O)CC3)N(C(=O)Cc3cc(Cl)c(NC(=O)c4cn(C)c5ccccc45)cc3F)C2)C1` [Example 1] had a solubility in data set [1] (setting [2]) above 2000 µg/mL. For the same compound, the solubility in data set [1] (setting [3]) is above 2000 µg/mL. In addition, on hα4 and β1 integrins, the Ki was 1.9 nM and the IC50 amounted to 15 nM.

Turning to `Cn1cc(C(=O)Nc2cc(Cl)c(CC(=O)N3C[C@@H](N4CC5CC4CN5C4CC4)C[C@H]3CO[C@H]3CC[C@H](C(=O)O)CC3)cc2Cl)c2ccccc21` (stereo partly drawn) [Example 164, Trans-4-[1-[[2,5-dichloro-4-[(1-methyl-1H-indol-3-ylcarbonyl)amino]phenyl]acetyl]-(4S)-[(1S,4S)-2-cyclopropyl-2,5-diazabicyclo[2.2.1]heptan-5-yl]-(2S)-pyrrolidinylmethoxy]cyclohexanecarboxylic acid], the solubility in data set [1] (setting [2]) and in data set [1] (setting [3]) was 1000 µg/mL (≈ 1380 µM) in each case. For the same compound, the affinity at hα4 and β1 integrins, expressed as Ki, was 13 nM. Besides, the IC50 at hα4 and β1 integrins is 71 nM.
